Experiments:
human mGluR2 receptor = molecular target: T1, human mGluR2 receptor (Homo sapiens, UniProt Q14416); assay: [35S]GTPγS binding assay (GTPγS-PAM): positive allosteric modulation in presence of glutamate at EC25, membranes from transfected CHO cells; format: biochemical; details: in presence of mGluR2 agonist glutamate at predetermined EC25 concentration, averages of duplicate values of 11-concentration response curves, read-out: GTPgS - hR2 PAM pEC50 (converted)
T1 construct: expressed in transfected cells; host or cells: CHO cells (membrane preparation)
Procedure, shortened: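 Membranes came from butyrate-stimulated CHO cells expressing human mGluR2, used at 15 μg/well in HEPES pH 7.4 with 100 mM NaCl, 3 mM MgCl2, 50 μM GDP and saponin. Compound (0.3 nM-50 μM, 11 concentrations) plus glutamate at EC25 was preincubated 30 min at 30° C., then 0.1 nM [35S]GTPγS was added for 30 min. Filter-bound radioactivity was counted, nonspecific binding was taken with 10 μM GTP, and curves were fitted by four-parameter logistic.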

T1 sequence (Q14416 19-872): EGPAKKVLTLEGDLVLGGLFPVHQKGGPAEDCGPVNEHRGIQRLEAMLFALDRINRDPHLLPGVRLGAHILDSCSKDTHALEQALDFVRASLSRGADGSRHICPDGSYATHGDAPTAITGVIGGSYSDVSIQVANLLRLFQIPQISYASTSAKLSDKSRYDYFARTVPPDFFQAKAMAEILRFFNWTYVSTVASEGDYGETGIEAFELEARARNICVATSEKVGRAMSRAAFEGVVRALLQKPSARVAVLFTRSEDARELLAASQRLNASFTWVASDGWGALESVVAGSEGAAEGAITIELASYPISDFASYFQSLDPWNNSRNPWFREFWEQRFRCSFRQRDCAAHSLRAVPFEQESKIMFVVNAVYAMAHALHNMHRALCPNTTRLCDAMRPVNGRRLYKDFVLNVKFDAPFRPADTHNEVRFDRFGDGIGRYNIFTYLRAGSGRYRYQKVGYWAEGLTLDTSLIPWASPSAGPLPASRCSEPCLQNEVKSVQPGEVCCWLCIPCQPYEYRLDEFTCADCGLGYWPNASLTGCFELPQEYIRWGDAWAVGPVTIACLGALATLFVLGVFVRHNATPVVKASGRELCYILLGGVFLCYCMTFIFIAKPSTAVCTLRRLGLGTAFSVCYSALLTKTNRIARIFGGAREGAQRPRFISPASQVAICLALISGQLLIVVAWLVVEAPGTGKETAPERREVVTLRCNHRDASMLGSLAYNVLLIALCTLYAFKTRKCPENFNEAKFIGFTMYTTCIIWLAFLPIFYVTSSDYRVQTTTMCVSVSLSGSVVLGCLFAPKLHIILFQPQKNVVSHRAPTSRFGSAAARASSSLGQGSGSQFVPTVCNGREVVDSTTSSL

Row | SMILES | EC50 (human mGluR2 receptor) [nM] | melting point [°C]
1 | CN(Cc1cccc(F)c1)C1CCN(c2ccn(Cc3ccc(F)cc3)c(=O)c2C#N)CC1 [4-057] | 1000 | 242
2 | N#Cc1c(N2CCC(N(Cc3cccc(F)c3)C3CC3)CC2)ccn(Cc2ccc(F)cc2)c1=O [4-059] | 251 | 157
3 | N#Cc1c(N2CCC(N(Cc3cccc(C(F)(F)F)c3)C3CC3)CC2)ccn(Cc2ccc(F)cc2)c1=O [4-060] | 50.1 | 96
4 | N#Cc1c(N2CCC(N3Cc4ccc(F)cc4C3)CC2)ccn(Cc2ccc(F)cc2)c1=O [4-061] | 1580 | 175
5 | N#Cc1c(N2CCC(c3ccccc3)CC2)ccn(Cc2ccc(OC(F)(F)F)cc2)c1=O [4-062] | 39.8 | 139
6 | CN(Cc1ccccc1)C1CCN(c2ccn(CCOc3ccccc3)c(=O)c2C#N)CC1 [4-064] | 126 | 159
7 | CCCCn1ccc(-c2ccc3c(c2)nc(C)n3Cc2ccccn2)c(C#N)c1=O [5-002] | 6310 | 164.7
8 | CC(C)CCn1ccc(N2CCC(N(C)Cc3cccc(F)c3)C2)c(C#N)c1=O (stereo not shown) [5-006] | 3980 | 100
9 | CC(C)CCn1ccc(N2CC(OCc3ccc(OC(F)(F)F)cc3)C2)c(C#N)c1=O [5-008] | 251 | 102
10 | CC(C)CCn1ccc(-c2ccc3c(ccn3Cc3ccncc3)c2)c(C#N)c1=O [5-020] | 25.1 | 232
11 | CC(C)CCn1ccc(N2CCCc3ccccc32)c(C#N)c1=O [5-031] | 6310 | 134
12 | COc1ccc2c(c1)C1CCCN(c3ccn(CCC(C)C)c(=O)c3C#N)C1CC2 (stereo not shown) [5-035] | 1580 | 169
13 | CC(C)CCn1ccc(N2CCC3Oc4ccccc4OC3C2)c(C#N)c1=O (stereo not shown) [5-037] | 398 | 217
14 | CC(C)CCn1ccc(N2CCc3c([nH]c4ccccc34)C2)c(C#N)c1=O [5-039] | 79.4 | 276
15 | CC(C)CCn1ccc(N2CCc3c(n(C)c4ccc(F)cc34)C2)c(C#N)c1=O [5-040] | 316 | 111
16 | CC(C)CCn1ccc(N2CCc3c(oc4ccccc34)C2)c(C#N)c1=O [5-041] | 50.1 | 130
17 | N#Cc1c(-c2ccc3[nH]ccc3c2)ccn(Cc2ccc(OC(F)(F)F)cc2)c1=O [5-051] | 251 | 166
